Data from US20110318375A1, “Immunomodulatory Therapeutic Agents” (priority 2009, published 2011).

Key:
Ponto Toro Virus = type: in vivo, mice; settings: Ponto Toro infection, one dose; placebo group 25% survived
[1] = tested on: Experimental Allergic Encephalomyelitis (EAE); experiment: Acute Experimental Allergic Encephalomyelitis mouse model; type: in vivo, mice; settings: daily, subcutaneous; recovery after day 22, worsened on days 27 and 28; p<0.1
Excerpt: The carboxy terminus of activated Fibrinopeptide A was considered to be the active portion of the peptide, the carboxy terminus was PEGylate (addition of Poly Ethylene Glycol). This molecule was used to perform an EAE study. This study was designed to mimic the study done by Ruhenstroth-Bauer in 1981 utilizing two of these peptides, and showing some albeit mild benefit. The synthetic PEGylated peptide was expected to perform considerably better than the non-PEGylated peptide. Synthetic non-PEGylated peptide A was used as a positive control to compare the PEGylated verses non-PEGylated peptides. The medications were administered subcutaneously, due to this route having some efficacy in the cytokine profiles.
Test article 2 (PEGylated peptide) dosed daily, every 3 days and weekly never even approached statistically significant benefit.
During the first 22 days of the study EAE development in mice treated with test article 1 (daily non-PEGylated peptide A) was very similar to the vehicle-treated mice. […] Disease worsened in test article 1-treated mice on days 27 and 28 and became very similar to disease severity to the mice in the vehicle-treated group.

Cytokine 12 Panel [2] = experiment: Cytokine 12 panel after oral peptide preparation taken daily for two weeks; type: in vivo, human; settings: Pre: prior to the IV dose, 4 weeks after oral dosing
Excerpt: Peptide was suspended in an appropriate medium and a healthy volunteer took the preparation daily for two weeks, drawing blood for a cytokine 12 panel every five days. Due to the size of the molecules absorption from the mucosal route seemed unlikely, and the rapid digestion of peptides in the stomach would eliminate their efficacy in a true oral route. This same healthy volunteer had lab work drawn right before receiving an IV dose of synthetic Fibrinopeptide A. The IV dose was expected to have a more profound therapeutic effect, since treatment was simulating a normal intravascular biologic process. […] (Table 3). [table]

Cytokine 12 Panel [3] = experiment: Cytokine 12 panels after IV dose of 50 mg synthetic Fibrinopeptide A; type: in vivo, human; parameters: IL-10 / TNF-α / IL-2 / IL-12: unit not given here; settings: for IFN-γ / IL-4 / IL-5 / IL-6 / IL-8 / IL-13: nl: 0-5; for IL-12: nl: 0-6; for IL-2: nl: 0-12; for IL-10: nl: 0-18; for TNF-α: nl: 0-22; for IL-1β: nl: 0-36; for IL-2R: nl: 0-1033
Excerpt: Peptide was suspended in an appropriate medium and a healthy volunteer took the preparation daily for two weeks, drawing blood for a cytokine 12 panel every five days. Due to the size of the molecules absorption from the mucosal route seemed unlikely, and the rapid digestion of peptides in the stomach would eliminate their efficacy in a true oral route. This same healthy volunteer had lab work drawn right before receiving an IV dose of synthetic Fibrinopeptide A. The IV dose was expected to have a more profound therapeutic effect, since treatment was simulating a normal intravascular biologic process. […] (Table 3). [table] In addition to these elevations, a mild elevation of Interleukin-6 was also observed. Interleukin-6 is a pro-inflammatory cytokine and is a very strong stimulator of the innate immune system. […] The most significant of these tests is the blood drawn one month after the IV dose was given. In this test the marked elevation of at least IL-10 and IL-1β, which had been present in each of the other dosages given by any route, was observed. […] This location for primary activity also explains the stimulation of the adaptive immune system over the innate immune response, as the lymphatic system is more involved in the adaptive response, while the vascular system is more involved in the innate response. The response to orally administered Fibrinopeptide A also solidifies this location of activity as transmucosal absorption occurs almost exclusively through the lymphatic route, occurs rapidly for those molecules which are absorbed, and the oral submucosal region (especially the sublingual region) has an extensive lymphatic drainage with rapid access to the cells which would produce this type of response while at least partially being shielded from the enzymes that inactivate the peptides of this invention. Since chronic fibrin deposition in the extravascular space is always pathologic and pro-inflammatory, it is not surprising that patients have a mechanism triggered by this deposition to aid in the removal of these substances. […] By signaling the need for removal from the extravascular space, the same process should occur for similar chronic deposits in the subintimal space.

mouse antibody IgE = settings: cited from earlier work

Question: What does the source list for “ADSGEGDFLAEGGGV (listed as Homo sapiens) [Fibrinopeptide A]”?
Answer: mice that lived (overall survivability) (Ponto Toro Virus): 60%; difference in disease severity versus vehicle-treated mice [1]: did not reach statistical significance; IFN-γ (Cytokine 12 Panel [2]; nl: 0-5): <5; IL-4 (Cytokine 12 Panel [2]; nl: 0-5): <5; IL-5 (Cytokine 12 Panel [2]; nl: 0-5): <5; IL-6 (Cytokine 12 Panel [2]; nl: 0-5): 13; IL-8 (Cytokine 12 Panel [2]; nl: 0-5): <5; IL-12 (Cytokine 12 Panel [2]; nl: 0-6): <5; IL-2 (Cytokine 12 Panel [2]; nl: 0-12): <5; IL-10 (Cytokine 12 Panel [2]; nl: 0-18): 96; TNF-α (Cytokine 12 Panel [2]; nl: 0-22): <5; IL-1β (Cytokine 12 Panel [2]; nl: 0-36): 52; IL-2R (Cytokine 12 Panel [2]; nl: 0-1033): 550; IFN-γ (Cytokine 12 Panel [3]; 10 Hours after IV 50 mg): <5; IL-4 (Cytokine 12 Panel [3]; 10 Hours after IV 50 mg): <5; IL-5 (Cytokine 12 Panel [3]; 10 Hours after IV 50 mg): <5; IL-6 (Cytokine 12 Panel [3]; 10 Hours after IV 50 mg): 11; IL-8 (Cytokine 12 Panel [3]; 10 Hours after IV 50 mg): <5; IL-12 (Cytokine 12 Panel [3]; 10 Hours after IV 50 mg): <5; IL-2 (Cytokine 12 Panel [3]; 10 Hours after IV 50 mg): <5; IL-10 (Cytokine 12 Panel [3]; 10 Hours after IV 50 mg): 87; TNF-α (Cytokine 12 Panel [3]; 10 Hours after IV 50 mg): <5; IL-1β (Cytokine 12 Panel [3]; 10 Hours after IV 50 mg): 52; IL-2R (Cytokine 12 Panel [3]; 10 Hours after IV 50 mg): 475; IFN-γ (Cytokine 12 Panel [3]; 14 hours after IV 50 mg): <5; IL-4 (Cytokine 12 Panel [3]; 14 hours after IV 50 mg): <5; IL-5 (Cytokine 12 Panel [3]; 14 hours after IV 50 mg): <5; IL-6 (Cytokine 12 Panel [3]; 14 hours after IV 50 mg): 10; IL-8 (Cytokine 12 Panel [3]; 14 hours after IV 50 mg): <5; IL-12 (Cytokine 12 Panel [3]; 14 hours after IV 50 mg): <5; IL-2 (Cytokine 12 Panel [3]; 14 hours after IV 50 mg): <5; IL-10 (Cytokine 12 Panel [3]; 14 hours after IV 50 mg): 87; TNF-α (Cytokine 12 Panel [3]; 14 hours after IV 50 mg): <5; IL-1β (Cytokine 12 Panel [3]; 14 hours after IV 50 mg): 54; IL-2R (Cytokine 12 Panel [3]; 14 hours after IV 50 mg): 492; IFN-γ (Cytokine 12 Panel [3]; 60 hours after IV 50 mg): <5; IL-4 (Cytokine 12 Panel [3]; 60 hours after IV 50 mg): <5; IL-5 (Cytokine 12 Panel [3]; 60 hours after IV 50 mg): <5; IL-6 (Cytokine 12 Panel [3]; 60 hours after IV 50 mg): 7; IL-8 (Cytokine 12 Panel [3]; 60 hours after IV 50 mg): <5; IL-12 (Cytokine 12 Panel [3]; 60 hours after IV 50 mg): <5; IL-2 (Cytokine 12 Panel [3]; 60 hours after IV 50 mg): <5; IL-10 (Cytokine 12 Panel [3]; 60 hours after IV 50 mg): 74; TNF-α (Cytokine 12 Panel [3]; 60 hours after IV 50 mg): <5; IL-1β (Cytokine 12 Panel [3]; 60 hours after IV 50 mg): 54; IL-2R (Cytokine 12 Panel [3]; 60 hours after IV 50 mg): 425; IFN-γ (Cytokine 12 Panel [3]; 30 days after IV 50 mg): <5; IL-4 (Cytokine 12 Panel [3]; 30 days after IV 50 mg): <5; IL-5 (Cytokine 12 Panel [3]; 30 days after IV 50 mg): <5; IL-6 (Cytokine 12 Panel [3]; 30 days after IV 50 mg): <5; IL-8 (Cytokine 12 Panel [3]; 30 days after IV 50 mg): <5; IL-13 (Cytokine 12 Panel [3]; 30 days after IV 50 mg): <5; IL-12 (Cytokine 12 Panel [3]; 30 days after IV 50 mg): <5; IL-2 (Cytokine 12 Panel [3]; 30 days after IV 50 mg): <5; IL-10 (Cytokine 12 Panel [3]; 30 days after IV 50 mg): 22; TNF-α (Cytokine 12 Panel [3]; 30 days after IV 50 mg): <5; IL-1β (Cytokine 12 Panel [3]; 30 days after IV 50 mg): <5; IL-2R (Cytokine 12 Panel [3]; 30 days after IV 50 mg): 546; response of the cytokine panel to IV administration (Cytokine 12 Panel [3]; IV dose 10 times stronger than the subcutaneous dosage given previously): no appreciable response; IFN-γ (Cytokine 12 Panel [3]; Pre and 1 month after IV Use): <5; IL-4 (Cytokine 12 Panel [3]; Pre and 1 month after IV Use): <5; IL-5 (Cytokine 12 Panel [3]; Pre and 1 month after IV Use): <5; IL-6 (Cytokine 12 Panel [3]; Pre and 1 month after IV Use): <5; IL-8 (Cytokine 12 Panel [3]; Pre and 1 month after IV Use): <5; IL-13 (Cytokine 12 Panel [3]; Pre and 1 month after IV Use): <5; IL-12 (Cytokine 12 Panel [3]; Pre and 1 month after IV Use): <5; IL-2 (Cytokine 12 Panel [3]; Pre and 1 month after IV Use): <5; IL-10 (Cytokine 12 Panel [3]; Pre and 1 month after IV Use): 22; TNF-α (Cytokine 12 Panel [3]; Pre and 1 month after IV Use): <5; IL-1β (Cytokine 12 Panel [3]; Pre and 1 month after IV Use): <5; IL-2R (Cytokine 12 Panel [3]; Pre and 1 month after IV Use): 546; deglycosylation of IgE (mouse antibody IgE): deglycosylates mouse antibody IgE
